Measurements reported in paper PMC4160091 (Frontiers in Cellular Neuroscience, 2014).
“Also recorded” adds a separate entry of the source.

Legend:
NT binding sites = details: rat, 5–9 days after the birth; ref Lépée-Lorgeoux et al., 1999; cited from earlier work
Text: This is similar to that reported previously for somatostatin and benzodiazepine binding sites ([Najimi et al., 1991], [2001]). […] We cannot exclude also that these hypothalamic structures have not yet completed their neuronal maturation ([Kopp et al., 1992]). Studies on older ages should reveal the ...

[1] = biological target: T1, NT binding sites, human hypothalamus (neonate/infant) (Homo sapiens, UniProt P30989); assay: Levocabastine competition with specific 125I-NT binding (competition experiments and autoradiography); details: all hypothalamic nuclei and areas in all cases
T1 construct: The frozen hypothalami were then sliced as 20 μm thick coronal sections; from tissue; host or cells: postmortem human neonate/infant hypothalamus, 20 μm frozen coronal sections
T1 sequence (P30989 whole entry): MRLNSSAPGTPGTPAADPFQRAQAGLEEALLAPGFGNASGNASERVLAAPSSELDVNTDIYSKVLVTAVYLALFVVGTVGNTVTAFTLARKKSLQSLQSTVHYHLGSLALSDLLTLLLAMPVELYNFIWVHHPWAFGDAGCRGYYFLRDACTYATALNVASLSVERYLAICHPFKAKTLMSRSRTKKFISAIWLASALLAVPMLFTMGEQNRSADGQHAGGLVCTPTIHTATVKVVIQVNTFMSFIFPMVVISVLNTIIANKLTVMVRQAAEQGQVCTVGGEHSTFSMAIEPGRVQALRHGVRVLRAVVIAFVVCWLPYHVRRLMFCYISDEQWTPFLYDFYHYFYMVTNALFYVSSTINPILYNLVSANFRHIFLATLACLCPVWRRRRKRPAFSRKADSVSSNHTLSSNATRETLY
Experimental: After incubation, the slides were washed with ice cold buffer four times for 2 min each and rapidly dried with cold air. Labeled sections and iodinated standards (Amersham, Courtaboeuf Cedex, France) were then apposed to 3H sensitive Ultrofilm (Amersham) in Amersham exposure cassettes. After 2 weeks exposure in dark conditions at 4°C, the film was developed in Kodak D19 (Eastman Kodak, Rochester, NY, USA) for 3 min, dipped in water and fixed with Kodak rapid fixer for 10 min.
Kinetics (IC50 and KD) analysis was computed by the method of [Parker and Waud (1971)].

NT2 receptor = details: reference not given; cited from earlier work

| Compound | number of NT binding sites after blockade of neurotransmission (NT binding sites) | inhibition of specific 125I-NT binding by levocabastine [1] | affinity for the NT2 receptor, in words (NT2 receptor) |
| --- | --- | --- | --- |
| COc1cccc(OC)c1-c1cc(C(=O)NC2(C(=O)O)C3CC4CC(C3)CC2C4)nn1-c1ccnc2cc(Cl)ccc12 (stereo not drawn) [SR 48692] | increases greatly the number of NT binding sites |  |  |
| C[C@@H]1CN([C@H]2CC[C@](C#N)(c3ccc(F)cc3)CC2)CC[C@]1(C(=O)O)c1ccccc1 [levocabastine] |  | insensitivity to levocabastine; also recorded: did not inhibit specific binding of ^125I-NT | has affinity for the NT2 receptor |
